Measured values published in the NIST ThermoML archive (doi:10.1016/j.tca.2016.05.011).
± gives the expanded uncertainty stated by the source.

Experiment: Boiling temperature at pressure P
Settings: Liquid, DSC

In the case of CC(C)(C)c1ccccc1O [2-tert-butyl-1-hydroxybenzene], the “Boiling temperature at pressure P” value (9.9 kPa) is reported as 145.4 ± 1.6 °C, the “Boiling temperature at pressure P” value (19.82 kPa) is reported as 165.5 ± 2.6 °C and the “Boiling temperature at pressure P” value (29.75 kPa) is reported as 178.6 ± 2.3 °C. The “Boiling temperature at pressure P” value (49.63 kPa) was 196.2 ± 3.1 °C and the “Boiling temperature at pressure P” value (64.61 kPa) was 206.1 ± 3.3 °C.
For Cc1ccccc1 [toluene], the “Boiling temperature at pressure P” value (29.65 kPa) was 72.4 ± 1.8 °C, the “Boiling temperature at pressure P” value (49.44 kPa) was 87.5 ± 2.5 °C and the “Boiling temperature at pressure P” value (69.2 kPa) was 98.0 ± 2.4 °C. The “Boiling temperature at pressure P” value (101.6 kPa) was 111.2 ± 3.2 °C and the “Boiling temperature at pressure P” value (247.5 kPa) was 145.5 ± 4.5 °C.
